Test results from patent publication US20040029167A1, “Inducible COMT_II promoter, chimeric gene containing same and plants transformed therewith” (priority 1999, published 2004).

Tested on: COMT II (−1215 to +24)/GUS
Experiment: Induction of GUS activity in COMT II (−1215 to +24)/GUS transgenic plants by elicitors and chemical products
Assay type: in vivo, Nicotiana tabacum cv. Samsun NN
Settings: for GUS Activity: leaves 16 h after infiltration, SA 1 mM, INA 1 mM, chitins 100 μg/ml, glucans 200 μg/ml, pectins 200 μg/ml; for Induction %: nontreated control C = 100, 16 h after infiltration, concentrations as for GUS Activity column
Method: The transgenic plants containing the construct COMT II (−1215 to +24)/GUS were treated with various chemical products, regulators of defense reactions, with methyl-2,6-dichloroisonicotinic (INA) and salicylic acid (SA), with fungal elicitors such as glucans or fragments of chitin and an elicitor of plant origin, such as pectin. The GUS activity is expressed in pmol MU/min.mg. The control (C) corresponds to the basal GUS activity in the nontreated transformed plants.
The induction of the 1239 bp promoter was studied during injury or after treatment with methyl jasmonate (molecule which plays a role in defense response signaling during injury) or with benzothiadiazole (BTH) (chemical SAR-inducer). The GUS activity is measured 16 h after treatment.
The COMT II and GUS activities were assayed on 100 mg of tissues. The tissue is homogenized in a 100 mM sodium phosphate buffer at pH 7.5 containing 10 mM of DTT, after addition of polyclar AT (Serva) and of quartz. The crude extracts are clarified by centrifugation and by filtration on glass wool. The GUS and COMT II activities are measured on the same crude extracts. For measuring the COMT II activity, an aliquot of the protein extract is added to 1 ml of phosphate buffer comprising 100 μM of catechol and 50 μM of tritiated S-adenosyl-L-methionine (1.5×10^5 cpm/ml) and incubated for 3 hours at 37° C. The reaction is stopped by adding 100 μl of 9M sulfuric acid. The radioactive reaction product, […], is extracted with 5 ml of an NA scintillation solution (Beckman) and the radioactivity is counted on a Beckman LS 9000 machine. The fluorimetric measurement of the GUS activity is performed on the same samples, according to the procedure of Jefferson et al. (1987). The protein content is determined by the Bradford method (1976) using Biorad reagents.
Treatment with an elicitor: Solutions are infiltrated, using a syringe equipped with a fine needle, in the mesophyl of the leaves. The infiltrated regions are delimited with a felt-tip marker. The infiltrated regions are harvested 16 hours after treatment. The leaves are treated with a solution of β-megaspermine, a protein elicitor purified from a Phytophthora megasperma culture medium (Kauffmann et al., 1993), or of oligosaccharides such as chitin oligomers (100 μg/ml), glucan fragments (200 μg/ml) and pectin fragments (200 μg/ml). The control plants are infiltrated with water.
Chemical treatments: (1) Solutions of SA (1 mM) or of INA (50 mM) are infiltrated into tobacco leaves using.the protocol described for the treatment with elicitors. (2) Under identical culture conditions, solutions of SA (10 mM), INA (1 mM) or BTH (50 mM) are sprayed onto the transgenic plants. The tissues are recovered 16 hours after treatment. Plants treated with water are used as a control. (3) Seven-week-old plants or leaves of vitroplants kept alive on water are transferred into transparent, hermetically sealed dishes and subjected to an atmosphere of 3.5 mM of MeJa (Serva). The tissues are removed at various times after treatment. The control plants are placed in the same dishes without MeJa.

[1] = 1239 bp promoter, 16 h after treatment

With `O=C(O)c1ccccc1O` [SA, salicylic acid] the “GUS Activity” value was 1,200 pmol MU/min.mg and the Induction % was 200%.

In the case of `COC(=O)c1cc(Cl)nc(Cl)c1` [INA, methyl-2,6-dichloroisonicotinic], the “GUS Activity” value is reported as 1,700 pmol MU/min.mg and the Induction % is reported as 200%.

With `CC/C=C\CC1C(=O)CCC1CC(=O)OC` (stereo not shown) [Methyl jasmonate, methyl jasmonate] the induction factors [1] was 14.5.

With `c1ccc2snnc2c1` [BTH, benzothiadiazole] the induction factors [1] was 2.5 and the “Induction of the GUS activity %” value (1239 bp promoter, 16 h after treatment, nontreated plants C = 100) was 250%.
